{
  "source": "patent US20070224128A1",
  "about": "“Drug adherence monitoring system” (priority 2006, published 2007)",
  "key": {"[1]": {"conditions": "cited from earlier work"}, "[2]": {"conditions": "water at 25° C.; cited from earlier work"}, "[3]": {"tested_on": "rat", "conditions": "4H; cited from earlier work"}, "[4]": {"tested_on": "rat", "conditions": "cited from earlier work"}, "[5]": {"molecular_target": "human recombinant CYP2D6 (Homo sapiens, UniProt P10635)", "sequence (P10635 whole entry)": "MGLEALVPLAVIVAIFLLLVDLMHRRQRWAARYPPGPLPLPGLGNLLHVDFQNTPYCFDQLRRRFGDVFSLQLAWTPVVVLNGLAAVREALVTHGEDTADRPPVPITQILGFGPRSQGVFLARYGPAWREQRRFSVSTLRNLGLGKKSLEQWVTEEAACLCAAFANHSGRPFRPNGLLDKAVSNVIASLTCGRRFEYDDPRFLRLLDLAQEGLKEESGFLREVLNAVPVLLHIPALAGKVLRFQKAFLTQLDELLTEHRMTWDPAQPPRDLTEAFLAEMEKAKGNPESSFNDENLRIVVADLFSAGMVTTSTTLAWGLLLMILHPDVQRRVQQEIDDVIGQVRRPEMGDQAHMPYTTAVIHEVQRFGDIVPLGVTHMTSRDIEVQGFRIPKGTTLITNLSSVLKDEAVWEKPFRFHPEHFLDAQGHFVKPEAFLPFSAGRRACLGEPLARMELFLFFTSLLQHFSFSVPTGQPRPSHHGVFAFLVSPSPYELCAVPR", "description": "CYP 2D6 inhibition assays were performed by Novascreen (Hanover, Md.). In brief, after 100 μL solution containing the compounds (dextromethorphan or trifluoroethyldextrorphan, concentration ranging from 10^−10 M to 10^−5M) and mixed 50 μL cofactor solution were preincubated in 100 mM potassium phosphate buffer (pH=7.4) for 10 min at 37° C., 50 μL of freshly mixed solution of human recombinant CYP2D6 (1.5 pmole) and AMMC (1.5 μM) was added to each well. The final cofactor concentrations were 1.3 mM NADP^+, 3.3 mM glucose-6-phosphate, 0.4 U/ml glucose-6-phosphate dehydrogenase. Samples were incubated for 45 minutes and the reaction was stopped with 75 μL Tris/acetonitrile stop solution. Quinidine was used as the reference compound. The AMMC metabolite, AMHC, was measured using a fluorescent plate scanner at an excitation wavelength of 390 nm and emission wavelength of 460 nm."}, "[6]": {"tested_on": "human liver microsomes", "assay": "Human liver microsomes assay: trifluoroacetaldehyde captured from headspace, GC/MS", "conditions": "2 mg/mL human liver microsome, 1 mM trifluoroethyldextrorphan, 1.5 hours, determined as DNPH derivative", "experimental": "Microsomal incubations were conducted in 1.5 mL polypropylene vials containing 2 mg/mL human liver microsome, 5.2 mM NADP^+, 13.2 mM glucose-6-phosphate, 1.6 U/ml glucose-6-phosphate dehydrogenase, 6.6 mM magnesium chloride and 1 mM trifluoroethyldextrorphan in 100 mM potassium phosphate buffer (pH 7.5). The total volume was 1.5 mL.\nLpDNPH S10 cartridges were employed to collect trifluoroacetaldehyde produced from incubation mixture for 1.5 hours through suction generated by a 5 mL syringe. The incubations were performed in triplicate. […]\nA Thermo Finnigan Polaris Q Mass Spectrometer (MS) system (consists of a Polaris Q MS, a TRACE GC, and the Xcalibur Data System) was used. […] Negative chemical ionization (NCI) mode was used for identification and quantitation of trifluoroacetaldehyde 2,4-dinitrophenylhydrazone. […]\n[^15N4]trifluoroacetaldehyde 2,4-dinitrophenylhydrazone was used as an internal standard for the determination of trifluoroacetaldehyde as its DNPH derivative. Quantitation was performed by selected ion monitoring (SIM) of most intensive fragment ions trifluoroacetaldehyde 2,4-dinitrophenylhydrazone (m/z 182) against the internal standard [^15N4]trifluoroacetaldehyde 2,4-dinitrophenylhydrazone (m/z 185). […]\nThe fragment ions m/z 182 and 185 were monitored for quantitation. […]"}},
  "note": "Where a name gives a salt, the structure may show the parent alone. Read-outs that look alike come from different tables or passages of the source.",
  "data": [
    {"smiles": "OC(C(F)(F)F)(C(F)(F)F)C(F)(F)F", "note": "[R′3]", "values": [
      {"measurement": "VP", "setting": "[1]; at 20° C.", "value": 268, "unit": "torr"},
      {"measurement": "Solubility", "setting": "[2]", "value": "39,200 mg/L"}
    ]},
    {"smiles": "OC(C(F)(F)F)C(F)(F)F", "note": "[R′4]", "values": [
      {"measurement": "VP", "setting": "[1]; at 20° C.", "value": 102, "unit": "torr"},
      {"measurement": "VP", "setting": "[1]; at 25° C.", "value": 159, "unit": "torr"},
      {"measurement": "Solubility", "setting": "[2]", "value": 7770, "unit": "mg/L"},
      {"measurement": "LC50 Inhalation rat", "setting": "[3]", "value": 1974, "unit": "ppm/4H"},
      {"measurement": "LD50 Oral rat", "setting": "[4]", "value": "1040 to 1500", "unit": "mg/kg"}
    ]},
    {"smiles": "COc1ccc2c(c1)[C@]13CCCC[C@@H]1[C@H](C2)N(C)CC3", "note": "[dextromethorphan, Dextromethorphan hydrobromide, reference compound]", "values": [
      {"measurement": "potency to inhibit AMMC metabolism", "setting": "[5]", "value": "similar"}
    ]},
    {"smiles": "CN1CC[C@@]23CCCC[C@@H]2[C@@H]1Cc1ccc(OCC(F)(F)F)cc13", "note": "[trifluoroethyldextrorphan, O-trifluoroethyldextrorphan]", "values": [
      {"measurement": "potency to inhibit AMMC metabolism", "setting": "[5]; human recombinant CYP2D6 1.5 pmole, AMMC 1.5 μM, compounds 10^−10 M to 10^−5 M, 45 minutes, FIG. 5", "value": "similar"},
      {"measurement": "trifluoroacetaldehyde captured from the headspace of the microsomal incubation mixture", "setting": "[6]", "value": 120, "unit": "ng"}
    ]}
  ]
}
